Test results: patent US20050209169A1, “Use of boswellic acid and its derivatives for inhibiting normal and increased leucocytic elastase or plasmin activity” (Hermann P.T. Ammon, priority 1995, published 2005)

How the values were obtained:
[1] = molecular target: T1, human leucocytic elastase (Homo sapiens, UniProt P08246); assay: Human leucocytic elastase activity in vitro, photometric, MeO-Suc-Ala-Ala-Pro-Val-p-nitroanilide substrate; assay type: biochemical; details: for remaining activity at 20 µM: 20 μM test compound, percentage of 100% controls, read-out: residual activity of human leucocytic elastase; for inhibitory effect on human leucocytic elastase: concentration of 20 μM each in the test, reference substances
T1 construct: purchased Calbiochem
T1 sequence (P08246 30-267): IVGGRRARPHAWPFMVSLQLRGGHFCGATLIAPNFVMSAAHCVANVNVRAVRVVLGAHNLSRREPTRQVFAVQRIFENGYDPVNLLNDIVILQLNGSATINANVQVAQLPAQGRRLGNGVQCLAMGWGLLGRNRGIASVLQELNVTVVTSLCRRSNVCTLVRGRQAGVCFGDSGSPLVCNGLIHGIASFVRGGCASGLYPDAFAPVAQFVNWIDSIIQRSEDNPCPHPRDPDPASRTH
From the text: The effects which differing concentrations of acetyl-11-keto-β-boswellic acid (AKBA) had on the human leucocytic elastase in these three series of measurement are shown as percentage of 100% controls as mean values±S.D. of three independent measurements each.

human plasmin = molecular target: T2, human plasmin (Homo sapiens, UniProt P00747); assay: Plasmin activity in vitro, photometric, substrate D-Ile-Phe-Lys-pNA; assay type: biochemical; details: for IC50: human plasmin in vitro, FIG. 2, read-out: half-maximum inhibition constants (IC50) of plasmin activity; for inhibition of plasmin activity, summary in words: in vitro test system, concentrations reachable in human blood after oral olibanum or frankincense extracts
T2 construct: purchased SIGMA
Method: The activity of human plasmin (SIGMA) was determined photometrically in vitro with the substrate D-Ile-Phe-Lys-pNA (Cs-Szabo et al., Thrombosis Res. 1980, 20: 199-206). The plasmin activity is referred to as the release of p-nitronaniline per minute (nmole/min) from the substrate as mean values±S.D. of n=3 measurements each.

human leucoytic elastase = molecular target: T3, human leucoytic elastase (Homo sapiens, UniProt P08246); details: literature, Ying et al. 1991, Biochem. J. 277: 521-526; read-out: Ki values, inhibition of human leucocytic elastase; cited from earlier work
T3 sequence (P08246 30-267): T1 sequence (P08246 30-267)

chymotrypsin = chymotrypsin (Bos taurus, UniProt P00766); assay: Chymotrypsin activity in vitro, photometric, MeO-Suc-Ala-Ala-Pro-Phe-p-nitroanilide substrate

T2 sequence (P00747 581-810 limits assumed): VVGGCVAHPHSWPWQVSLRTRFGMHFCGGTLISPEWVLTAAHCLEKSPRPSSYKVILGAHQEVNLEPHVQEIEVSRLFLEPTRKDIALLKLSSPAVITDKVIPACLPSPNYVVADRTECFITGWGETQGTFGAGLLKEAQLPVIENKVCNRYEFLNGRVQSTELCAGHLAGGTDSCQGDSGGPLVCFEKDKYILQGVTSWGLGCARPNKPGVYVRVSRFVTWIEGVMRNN
T2 sequence (P00747 97-580 partner limits assumed): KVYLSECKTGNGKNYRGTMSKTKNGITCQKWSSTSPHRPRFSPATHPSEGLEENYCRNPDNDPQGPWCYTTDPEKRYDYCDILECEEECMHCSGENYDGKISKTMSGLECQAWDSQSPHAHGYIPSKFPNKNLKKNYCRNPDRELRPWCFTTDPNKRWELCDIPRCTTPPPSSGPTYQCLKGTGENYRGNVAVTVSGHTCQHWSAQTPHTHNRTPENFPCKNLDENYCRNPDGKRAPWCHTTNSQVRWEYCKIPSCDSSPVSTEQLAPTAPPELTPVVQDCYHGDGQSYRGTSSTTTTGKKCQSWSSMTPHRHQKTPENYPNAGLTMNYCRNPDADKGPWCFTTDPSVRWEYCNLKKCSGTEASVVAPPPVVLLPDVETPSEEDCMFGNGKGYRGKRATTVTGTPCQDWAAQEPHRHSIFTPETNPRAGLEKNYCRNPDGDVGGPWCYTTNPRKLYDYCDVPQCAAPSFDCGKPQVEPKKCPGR

## C[C@H]1[C@H](C)CC[C@]2(C(=O)O)CC[C@]3(C)C(=CC[C@@H]4[C@@]5(C)CC[C@H](O)C(C)(C)[C@@H]5CC[C@]43C)[C@H]12 [ursolic acid]
[1]
  remaining activity at 20 µM: 11%
Human plasmin
  IC50: ~15 µM
  inhibition of plasmin activity, summary in words: substantially weaker
Human leucoytic elastase
  Ki: 4 to 6 µM
chymotrypsin; 50 μM test compound
  chymotrypsin activity, of the control activity: 56%
chymotrypsin; 100 μM test compound
  chymotrypsin activity, of the control activity: 30%

## CCCCC/C=C\C/C=C\C/C=C\C/C=C\CCCC(=O)O [arachidonic acid]
[1]
  inhibitory effect on human leucocytic elastase: no inhibitory effect

## C[C@H]1[C@H](C)CC[C@]2(C)CC[C@]3(C)C(=CC[C@@H]4[C@@]5(C)CC[C@@H](O)[C@](C)(C(=O)O)[C@@H]5CC[C@]43C)[C@H]12 [β-BA, β-boswellic acid]
Human plasmin
  inhibition of plasmin activity, summary in words: inhibited almost completely

## C[C@]12CC[C@H]3[C@@H](CCC4=CC(=O)CC[C@@]43C)[C@@H]1CC[C@@H]2O [testosterone]
[1]
  inhibitory effect on human leucocytic elastase: no inhibitory effect

## C[C@]12CCC(=O)C=C1CC[C@@H]1[C@@H]2[C@@H](O)C[C@@]2(C)[C@H]1CC[C@]2(O)C(=O)CO [cortisol]
[1]
  inhibitory effect on human leucocytic elastase: no inhibitory effect

## CC(C)c1ccc2c(c1)c(SC(C)(C)C)c(CC(C)(C)C(=O)O)n2Cc1ccc(Cl)cc1 [MK886]
[1]
  inhibitory effect on human leucocytic elastase: no inhibitory effect

## CC(=O)OC1CCC2(C)C(CCC3(C)C2C(=O)C=C2C4C(C)C(C)CCC4(C)CCC23C)C1(C)C(=O)O (stereo not drawn) [AKBA, acetyl-11-keto-β-boswellic acid]
[1]
  remaining activity at 20 µM: 18%
[1]; substrate concentrations of 50, 100 and 150 μM, 10% DMSO, room temperature, read-out: IC50 values, inhibition of human leucocytic elastase
  IC50: ~17 µM
Human plasmin
  IC50: 4 to 6 µM
  inhibition of plasmin activity, summary in words: inhibited almost completely
chymotrypsin; 50 μM test compound
  chymotrypsin activity, of the control activity: 89%
chymotrypsin; 100 μM test compound
  chymotrypsin activity, of the control activity: 85%

## CC(Cc1ccc(O)c(O)c1)C(C)Cc1ccc(O)c(O)c1 (stereo not drawn) [NDGA]
[1]
  inhibitory effect on human leucocytic elastase: no inhibitory effect

## CC1(C)[C@@H](O)CC[C@]2(C)[C@H]3C(=O)C=C4[C@@H]5C[C@@](C)(C(=O)O)CC[C@]5(C)CC[C@@]4(C)[C@]3(C)CC[C@@H]12 [glycerrhitinic acid]
[1]
  inhibitory effect on human leucocytic elastase: no inhibitory effect

## amyrin
Human plasmin; concentrations up to 50 μM (not shown)
  influence on plasmin activity: does not influence significantly
Human plasmin
  inhibition of plasmin activity, summary in words: not effective at all
